Data reported in patent US20150197492A1, “NOVEL INDENO[1,2-c]QUINOLIN-11-ONE DERIVATIVES, PREPARATION METHOD AND APPLICATION THEREOF” (National Defense Medical Center, priority 2014, published 2015).

Assays:
Type in all cases: cell-based
human PC-3 cells = assay: Sulforhodamine B (SRB) assay, cytotoxicity against PC-3 cells; details: Homo sapiens; SRB assay, PC-3 cells, 48 hours; read-out: IC50
Experimental: Add 5% Fetal Bovine Serum (FBS) to 96-well plate and fix the cells with 10% TCA after 24 hours of incubation and add the compound (T0). Add DMSO and culture for another 48 hours and the cells are fixed in 0.4% (W/V), 10% TCA and SRB, and […]. Excess SRB is washed off by 1% acetic acid and cells stained with SRB are dissolved in 10 mmol/L Trizma base. The absorbance is measured at 515 nm. The treatment time is 0 (T0), control growth (C) and the increase of the compound (Tx) in the cells are shown below and are used to calculate the increase of the concentration of the compound in percentage. Growth inhibition (GI %) is calculated using the following formula 100−[(TX−T0)/(C−T0)]×100. The 50% growth inhibition concentration (IC50) is used to confirm the concentration of compound and thus results in 50% reduction of the treated cells which control the amount of total protein.
This part of experimental results are SRB assays measuring cytotoxicity of the 26 synthesized compounds against human PC-3 cells and are summarized in Table 1 and 2.

[1] = system: 55 to 60 cancer cell lines; details: 10 μM, 48 hours, all tested cell lines
K-562 = assay: cells; details: K-562 (Leukemia), 10 μM, 48 hours
SR = assay: cells; details: SR (Leukemia), 10 μM, 48 hours
NCI-H226 = assay: cells; details: NCI-H226 (Non-Small Cell Lung Cancer), 10 μM, 48 hours
NCI-H322M = assay: cells; details: NCI-H322M (Non-Small Cell Lung Cancer), 10 μM, 48 hours
NCI-H460 = assay: cells; details: NCI-H460 (Non-Small Cell Lung Cancer), 10 μM, 48 hours
COLO 205 = assay: cells; details: COLO 205 (Colon Cancer), 10 μM, 48 hours
SW-620 = assay: cells; details: SW-620 (Colon Cancer), 10 μM, 48 hours
SF-295 = assay: cells; details: SF-295 (CNS Cancer), 10 μM, 48 hours
SF-539 = assay: cells; details: SF-539 (CNS Cancer), 10 μM, 48 hours
SNB-19 = assay: cells; details: SNB-19 (CNS Cancer), 10 μM, 48 hours
SNB-75 = assay: cells; details: SNB-75 (CNS Cancer), 10 μM, 48 hours
U251 = assay: cells; details: U251 (CNS Cancer), 10 μM, 48 hours
LOX IMVI = assay: cells; details: LOX IMVI (Melanoma), 10 μM, 48 hours
MALME-3M = assay: cells; details: MALME-3M (Melanoma), 10 μM, 48 hours
M14 = assay: cells; details: M14 (Melanoma), 10 μM, 48 hours
UACC-62 = assay: cells; details: UACC-62 (Melanoma), 10 μM, 48 hours
OVCAR-4 = assay: cells; details: OVCAR-4 (Ovarian Cancer), 10 μM, 48 hours
OVCAR-8 = assay: cells; details: OVCAR-8 (Ovarian Cancer), 10 μM, 48 hours
ACHN = assay: cells; details: ACHN (Renal Cancer), 10 μM, 48 hours
SN12C = assay: cells; details: SN12C (Renal Cancer), 10 μM, 48 hours
PC-3 = assay: cells; details: PC-3 (Prostate Cancer), 10 μM, 48 hours
DU-145 = assay: cells; details: DU-145 (Prostate Cancer), 10 μM, 48 hours
MCF7 = assay: cells; details: MCF7 (Breast Cancer), 10 μM, 48 hours
MDA-MB-231/ATCC = assay: cells; details: MDA-MB-231/ATCC (Breast Cancer), 10 μM, 48 hours
T-47D = assay: cells; details: T-47D (Breast Cancer), 10 μM, 48 hours
MDA-MB-468 = assay: cells; details: MDA-MB-468 (Breast Cancer), 10 μM, 48 hours

Compound | Mean (mean growth percentage of the tested cancer cell lines) [1] [%] | growth percentage (K-562) [%] | growth percentage (SR) [%] | growth percentage (NCI-H226) [%] | growth percentage (NCI-H322M) [%] | growth percentage (NCI-H460) [%] | growth percentage (COLO 205) [%] | growth percentage (SW-620) [%] | growth percentage (SF-295) [%] | growth percentage (SF-539) [%] | growth percentage (SNB-19) [%] | growth percentage (SNB-75) [%] | growth percentage (U251) [%] | growth percentage (LOX IMVI) [%] | growth percentage (MALME-3M) [%] | growth percentage (M14) [%] | growth percentage (UACC-62) [%] | growth percentage (OVCAR-4) [%] | growth percentage (OVCAR-8) [%] | growth percentage (ACHN) [%] | further results
O=C1c2cc(Cl)ccc2-c2c(SCCO)nc3ccccc3c21 [SJ-25, 6-(2-Hydroxyethylthio)-9-chloro-11H-indeno[1,2-c]quinolin-11-one] | 79.52 | 63.81 | 61.70 | 80.52 | 73.47 | 79.22 | 87.39 | 86.99 | 73.28 | 100.05 | 89.19 | 66.06 | 78.04 | 68.41 | 107.23 | 98.89 | 84.47 | 73.19 | 90.21 | 88.12 | IC50 (human PC-3 cells): > 10 µM; growth percentage (SN12C): 84.58%; growth percentage (PC-3): 58.35%; growth percentage (DU-145): 92.27%; growth percentage (MCF7): 67.82%; growth percentage (MDA-MB-231/ATCC): 72.56%; growth percentage (T-47D): 63.89%; growth percentage (MDA-MB-468): 77.36%
O=C1c2cc(Cl)ccc2-c2c(O)nc3ccccc3c21 [SJ-26, 6-Hydroxy-9-chloro-11H-indeno[1,2-c]quinolin-11-one] | 96.60 | 97.48 | 77.02 | 85.66 | 90.72 | 83.32 | 98.25 | 95.26 | 92.48 | 105.79 | 99.28 | 80.33 | 96.46 | 86.91 | 103.37 | 108.50 | 95.17 | 80.74 | 107.63 | 104.75 | growth percentage (SN12C): 96.69%; growth percentage (PC-3): 93.44%; growth percentage (DU-145): 111.80%; growth percentage (MCF7): 68.09%; growth percentage (MDA-MB-231/ATCC): 86.98%; growth percentage (T-47D): 67.23%; growth percentage (MDA-MB-468): 80.08%
